From patent publication US9695155B2, “Herbicidal substituted pyrimidinyloxy benzene compounds” (E. I. DU PONT DE NEMOURS AND COMPANY, priority 2013, dated 2017)

What was measured:
fall panicum = assay: Test E postemergence; format: in vivo, Panicum dichotomiflorum; conditions: Panicum dichotomiflorum, post-emergence, read-out: Plant response rating, Panicum, Fall
Method in brief: (§1)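 Compound in a non-phytotoxic solvent mixture with surfactant was applied preemergence to seeds in silt loam soil, or postemergence to plants 2 to 18 cm tall grown in peat-based potting medium. Plants were kept in a greenhouse for 14 to 21 days, then rated visually against untreated controls on a 0 (no effect) to 100 (complete control) scale.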

dayflower = assay: Test E postemergence; format: in vivo, Commelina virginica; conditions: Commelina virginica, post-emergence, read-out: Plant response rating, Dayflower, VA
Method in brief: as §1

chamomile = assay: Test D preemergence; format: in vivo, Matricaria inodora; conditions: Tripleurospermum inodorum, pre-emergence, scale 0-100, read-out: Plant response rating, Chamomile
Method in brief: (§2)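 Visual rating vs untreated controls, 0 = no effect, 100 = complete control, taken 7–21 d after treatment. Pre: silt loam soil. Post: potting medium, plants 2–18 cm, 1–4 leaf. Formulation: non-phytotoxic solvent mix + surfactant.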

bromegrass, downy = assay: Test D postemergence; format: in vivo, Bromus tectorum; conditions: Bromus tectorum, post-emergence, Postemergence, scale 0 to 100 (0 no effect, 100 complete control), read-out: Plant response rating, Bromegrass, Downy
Method in brief: as §2

oilseed rape = assay: Test D postemergence; format: in vivo, Brassica napus; conditions: Brassica napus, post-emergence, scale 0 to 100 (0 no effect, 100 complete control), read-out: Plant response rating, Oilseed Rape
Method in brief: as §2

Italian ryegrass = assay: Test E postemergence; format: in vivo, Lolium multiflorum; conditions: Lolium multiflorum, post-emergence, read-out: Plant response rating, Ryegrass, Italian
Method in brief: as §1

wild mustard = assay: Test D preemergence; format: in vivo, Sinapis arvensis; conditions: Brassica, pre-emergence, scale 0-100, read-out: Plant response rating, Mustard, Wild
Method in brief: as §2

spring barley = assay: Test D postemergence; format: in vivo, Hordeum vulgare; conditions: Hordeum vulgare, post-emergence, Postemergence, scale 0 to 100 (0 no effect, 100 complete control), read-out: Plant response rating, Barley, Spring
Method in brief: as §2

winter barley = assay: Test D postemergence; format: in vivo, Hordeum vulgare; conditions: Hordeum vulgare, post-emergence, Postemergence, scale 0 to 100 (0 no effect, 100 complete control), read-out: Plant response rating, Barley, Winter
Method in brief: as §2

pigweed = assay: Test D preemergence; format: in vivo, Amaranthus retroflexus; conditions: Amaranthus retroflexus, pre-emergence
Method in brief: as §2

field poppy = assay: Test D postemergence; format: in vivo, Papaver rhoeas; conditions: Papaver rhoeas, post-emergence, scale 0 to 100 (0 no effect, 100 complete control), read-out: Plant response rating, Field Poppy
Method in brief: as §2

wild poinsettia = assay: Test E postemergence; format: in vivo, Euphorbia heterophylla; conditions: Euphorbia heterophylla, post-emergence; Postemergence, 250 g ai/ha, scale 0 to 100; read-out: Plant response rating, Poinsettia, Wild
Method in brief: as §1

wild radish = assay: Test D preemergence; format: in vivo, Raphanus raphanistrum; conditions: Raphanus raphanistrum, pre-emergence
Method in brief: as §2

[1] = Postemergence, 31 g ai/ha, scale 0 to 100
[2] = Postemergence, 62 g ai/ha, scale 0 to 100
[3] = Postemergence, 125 g ai/ha, scale 0 to 100
[4] = Postemergence, 250 g ai/ha, scale 0 to 100
[5] = postemergence, 16 g ai/ha, scale 0 to 100, 0 no effect, 100 complete control

N#Cc1cccc(Oc2ncc(Cl)cn2)c1-n1cc(C(F)(F)F)cn1 [Compound 58, 3-[(5-chloro-2-pyrimidinyl)oxy]-2-[4-(trifluoromethyl)-1H-pyrazol-1-yl]benzonitrile]
pest or weed control at 31 g/ha (fall panicum; [1]): 30%
pest or weed control at 62 g/ha (fall panicum; [2]): 40%
pest or weed control at 125 g/ha (fall panicum; [3]): 60%
pest or weed control at 250 g/ha (fall panicum; [4]): 60%
pest or weed control at 16 g/ha (fall panicum; [5]): 20%
pest or weed control at 31 g/ha (dayflower; [1]): 60%
pest or weed control at 62 g/ha (dayflower; [2]): 75%
pest or weed control at 125 g/ha (dayflower; [3]): 90%
pest or weed control at 250 g/ha (dayflower; [4]): 100%
pest or weed control at 16 g/ha (dayflower; [5]): 50%
pest or weed control at 31 g/ha (chamomile; 31 g ai/ha): 30%
pest or weed control at 62 g/ha (chamomile; 62 g ai/ha): 50%
pest or weed control at 125 g/ha (chamomile; 125 g ai/ha): 80%
pest or weed control at 250 g/ha (chamomile; 250 g ai/ha): 100%
pest or weed control at 31 g/ha (bromegrass, downy; 31 g ai/ha): 25%
pest or weed control at 62 g/ha (bromegrass, downy; 62 g ai/ha): 30%
pest or weed control at 125 g/ha (bromegrass, downy; 125 g ai/ha): 35%
pest or weed control at 250 g/ha (bromegrass, downy; 250 g ai/ha): 35%
plant injury at 31 g/ha (oilseed rape; 31 g ai/ha): 55%
plant injury at 62 g/ha (oilseed rape; 62 g ai/ha): 85%
plant injury at 125 g/ha (oilseed rape; 125 g ai/ha): 95%
plant injury at 250 g/ha (oilseed rape; 250 g ai/ha): 95%
pest or weed control at 31 g/ha (Italian ryegrass; [1]): 10%
pest or weed control at 62 g/ha (Italian ryegrass; [2]): 20%
pest or weed control at 125 g/ha (Italian ryegrass; [3]): 35%
pest or weed control at 250 g/ha (Italian ryegrass; [4]): 60%
pest or weed control at 16 g/ha (Italian ryegrass; [5]): 10%
pest or weed control at 31 g/ha (wild mustard; 31 g ai/ha): 90%
pest or weed control at 62 g/ha (wild mustard; 62 g ai/ha): 100%
pest or weed control at 125 g/ha (wild mustard; 125 g ai/ha): 100%
pest or weed control at 250 g/ha (wild mustard; 250 g ai/ha): 100%
plant injury at 31 g/ha (spring barley; 31 g ai/ha): 15%
plant injury at 62 g/ha (spring barley; 62 g ai/ha): 20%
plant injury at 125 g/ha (spring barley; 125 g ai/ha): 30%
plant injury at 250 g/ha (spring barley; 250 g ai/ha): 40%
plant injury at 31 g/ha (winter barley; 31 g ai/ha): 10%
plant injury at 62 g/ha (winter barley; 62 g ai/ha): 15%
plant injury at 125 g/ha (winter barley; 125 g ai/ha): 25%
plant injury at 250 g/ha (winter barley; 250 g ai/ha): 50%
pest or weed control at 31 g/ha (pigweed; 31 g ai/ha, scale 0 (no effect) to 100 (complete control), read-out: Plant response rating, Pigweed): 100%
pest or weed control at 62 g/ha (pigweed; 62 g ai/ha, scale 0-100, read-out: Plant response rating, Pigweed): 100%
pest or weed control at 125 g/ha (pigweed; 125 g ai/ha, scale 0-100, read-out: Plant response rating, Pigweed): 100%
pest or weed control at 250 g/ha (pigweed; 250 g ai/ha, scale 0-100, read-out: Plant response rating, Pigweed): 100%
pest or weed control at 31 g/ha (field poppy; 31 g ai/ha): 80%
pest or weed control at 62 g/ha (field poppy; 62 g ai/ha): 85%
pest or weed control at 125 g/ha (field poppy; 125 g ai/ha): 100%
pest or weed control at 250 g/ha (field poppy; 250 g ai/ha): 100%
pest or weed control at 250 g/ha (wild poinsettia): 90%
pest or weed control at 31 g/ha (wild radish; 31 g ai/ha, scale 0 (no effect) to 100 (complete control), read-out: Plant response rating, Radish, Wild): 100%
pest or weed control at 62 g/ha (wild radish; 62 g ai/ha, scale 0-100, read-out: Plant response rating, Radish, Wild): 100%
pest or weed control at 125 g/ha (wild radish; 125 g ai/ha, scale 0-100, read-out: Plant response rating, Radish, Wild): 100%
pest or weed control at 250 g/ha (wild radish; 250 g ai/ha, scale 0-100, read-out: Plant response rating, Radish, Wild): 100%
